In patent publication US20190084900A1, “ISOTOPICALLY MODIFIED COMPOSITION AND THERAPEUTIC USES THEREOF” (RETROTOPE, INC., priority 2016, published 2019):
“Also recorded” adds a separate entry of the source. Where no end group is shown, it is not given here.

Columns and labels:
[1] = In vitro peptide aging: deamidation of the asparaginyl residue, by reverse-phase HPLC with UV at 210 nm; conditions: pH 7.4, 37° C.
Method: Deuterated peptide VYPNGA and the protonated control peptide were dissolved in 0.1 M sodium phosphate, pH 7.44 at 23° C. These solutions were sterilized by passing them through 0.2 μm pore syringe filters (Fisher), and 50 μL aliquots containing 40 nmol of peptide were placed in 200 μL PCR tubes, which were incubated at 37° C. for various times up to 20.6 days. At this temperature, the pH of the phosphate buffer is very close to 7.40. At the end of the incubations, 4.5 μL of 1 M hydrochloric acid was added to each tube, lowering the pH to about 4 to minimize any additional deamidation of the asparaginyl residue. These aged samples were then stored at −20° C. prior to analysis by HPLC.
Deuterated and non-deuterated VYPNGA were aged in vitro in 0.1 M sodium phosphate at physiological pH and temperature. The rate of deamidation of the asparaginyl residue was determined by separating the peptide from its degradation products using reverse phase HPLC and measuring the UV absorbance at 210 nm using the approach of Geiger and Clarke, supra.
The l- and d-forms of these peptides were not separated under these conditions. These HPLC runs were done with a linear gradient from 100% buffer A (0.1% trifluoroacetic acid in water) to 86% buffer A/14% buffer B (0.1% trifluoroacetic acid, 0.9% water, 99% acetonitrile) in 28 min.
The relative quantity of asparagine-containing peptide remaining (open circles) was quantified by UV absorbance at 210 nm during separation of the peptides by HPLC using a reverse phase C18 column as shown in FIG. 2. There were 24 data points in each panel though some were concealed due to overlap, combined from two independent aging experiments. The line in each panel was fit to the data points using the first order reaction equation [A]=[A]0e−kt and least squares analysis.

[2] = In vitro peptide aging: racemization, D-aspartate quantified in acid hydrolysates and rate constants fitted; format: physicochemical; conditions: for Asn/Asp/isoAsp residues racemized to the D-configuration by 4 days: 4 days of aging; for racemization rate constant of the succinimide: least squares fit of modeled D-Asx accumulation to measured values; for slope of racemization line (D-aspartate fraction versus time): deamidated peptides
Method: First, a 10 μL aliquot (3.27 nmol) was removed from the aged sample and dried in a small glass test tube. These tubes were placed in a hydrolysis vial and 300 μL of 6 M hydrochloric acid was added to the vial but not directly into the sample tubes. The vial was capped with a Teflon stopcock, and then was flushed with nitrogen and sealed under vacuum using a PicoTag Work Station (Waters). This method allows only acid vapor to contact the peptide, minimizing contamination with exogenous aspartic acid. Hydrolysis proceeded at 110° C. for the relatively short time of 3 h, which is long enough to release most of the asparaginyl/aspartyl residues from the peptide, while minimizing acid catalyzed racemization (Brunauer and Clarke 1986). D-Aspartate and L-aspartate in the hydrolysates were then modified with o-phthalaldehyde and N-acetyl-L-cysteine to make fluorescent diasteriomers and quantitated using reverse phase HPLC with fluorometric analysis (Aswad 1984), as modified by Warmack et al. 2016.
To get an estimate of the racemization rate constants, the rate constants determined by Geiger and Clarke (1987) for a peptide of the same sequence was used but only with protonated asparagine using the following equations, where each k value has the units of min^−1: […]
At time zero, the l-asparaginyl-containing peptide is set to a quantity of 1.0, and all of the degradation products are considered to have a quantity of 0. The equations are then solved to give the quantities of the peptides present after 1 min, and these quantities are then used to solve the peptides for the next minute. Using Microsoft Excel, these calculations were repeated until the amount of each peptide present after 20.6 days was determined.
To investigate the effect of asparagine residue deuteration on racemization, the peptides were aged at 37° C. and pH 7.4 as described above, and the quantity of D-aspartate determined following acid hydrolysis. While breaking the peptide bonds to release free amino acids, acid hydrolysis also converts asparaginyl, succinimidyl, and isoaspartyl residues into free aspartic acid. […] The accumulation of D-Asx residues (D-Asp, D-isoAsp, and D-succinimide) was modeled using the rate constants as described in the “Materials and methods” section to fit the data points using the values obtained by Geiger and Clarke (1987) and maximizing the fit by varying the rate constant for succinimide racemization.
VYPNGA containing either protiated or deuterated asparagine was incubated for various times at 37° C. and pH 7.4 and then acid hydrolyzed. The amount of d-aspartate and l-aspartate in the hydrolysates was quantified following derivatization with ortho-phthalaldehyde and N-acetyl-1-cysteine and separation of the resulting fluorescent diastereomers by reverse-phase HPLC, and graphed as the fraction of d-aspartate relative to the total aspartate (open circles). […] The lines were obtained by computer simulation of the reactions involved in deamidation of asparaginyl residues starting with previously published kinetic constants (Geiger and Clarke 1987), and varying the racemization rate of the succinimide intermediate to give a best-fit line as determined by least squares analysis.

[3] = In vitro peptide aging: hydrolysis of the succinimide intermediate to isoaspartyl vs normal aspartyl peptide (HPLC); format: physicochemical; conditions: for average relative amount of isoaspartyl-containing peptide (isoAsp/(isoAsp+Asp)): samples aged at 37° C. for at least 24 h, pH 7.4
Method: Both isoaspartyl- and normal aspartyl-containing peptides arose from spontaneous deamidation of the deuterated asparaginyl residue upon incubation at pH 7.4 and 37° C.

[4] = Geiger and Clarke 1987; cited from earlier work
[5] = physchem; conditions: buffer, pH 7.4
[6] = Stephenson and Clarke; cited from earlier work
[7] = between 9 and 22 days of incubation

Row | Substance | asparaginyl residues deamidated after 6 days [1] | asparaginyl residues deamidated after three days [1] | effect of deuterium atoms on rate of deamidation / succinimide formation ([1]; versus protiated peptide) | racemization rate constant relative to protiated peptide ([2]; 37° C., pH 7.4) | Asn/Asp/isoAsp residues racemized to the D-configuration by 4 days ([2]; 37° C., pH 7.4) | aspartyl/isoaspartyl/succinimidyl residues racemized to the D-configuration after 21 days ([2]; 37° C., pH 7.4, 21 days of incubation) | racemization rate constant of the succinimide ([2]; 37° C., pH 7.4) | succinimides that have lost the deuterium from the alpha carbon ([2]; 21 days of incubation, 2×1.49%) | deamidated peptide still deuterated on the alpha carbon ([2]; after incubation, 9 to 22 days) | rate of racemization of l-aspartyl/l-isoaspartyl residues relative to protiated [2, 7] | slope of racemization line (D-aspartate fraction versus time) [2, 7] | accumulation of d-aspartyl and d-isoaspartyl forms / rate of D-aspartate formation relative to protiated peptide ([2]; pH 7.4, 37° C., up to 20 day incubation) | increase in production of normal aspartyl-containing peptide upon hydrolysis of the succinimide ring ([3]; deuterated versus protiated succinimide) | tendency of the succinimide to open to the isoaspartyl configuration / effect on succinimide hydrolysis ([3]; deuterated versus protonated succinimide) | average relative amount of isoaspartyl-containing peptide (isoAsp/(isoAsp+Asp)) [3] | L-isoAsp/(L-isoAsp+L-Asp) previously reported [4] | half-life at 800 µM [5] | succinimide formation of Asn residue in VYPNGA relative to aspartyl residue in VYPDGA [6] | racemization rate constant relative to that previously measured (Geiger and Clarke) ([2]; higher than the literature value) | rate of racemization of protiated peptide relative to deuterated peptide ([2]; within the first day of aging under physiological conditions)
1 | VYPNGA [deuterated peptide] | about 95% | 80% | little effect; also recorded: unchanged; also recorded: no effect | almost five-fold lower | 1% | 1.49% | 7.4e-05 min⁻¹ | 2.98% | over 97% | about fourfold slower | about 1.70×10^−4 day^−1 | much slower rate; also recorded: decreased more than five-fold; also recorded: five-fold decreased rate; also recorded: much more resistant to racemization | about 2.3% | slightly less likely to open to the isoaspartyl configuration; also recorded: only a small effect | 0.770 | – | – | – | – | –
2 | VYPNGA [protiated peptide, L-Val-L-Tyr-L-Pro-L-Asn-Gly-L-Ala, reference compound] | about 95% | 80% | – | – | 5% | – | 0.00034 min⁻¹ | – | – | – | 0.000677 day⁻¹ | – | – | – | 0.793 | 0.785 | 32.4 h | about 37 times | about 1.14 fold | 3.65 times
